The numbers were not newly measured in US9308173B2, “Slow-releasing ophthalmic compositions comprising povidone iodine” (JIANGSU DEDA PHARMACEUTICALS CO., LTD., priority 2011, dated 2016), which cites them from elsewhere.

In this data set the test system is infected eyes.

Read-outs that look alike come from different tables or passages of the source.

With Povidone iodine [PVP-I], the “Toxicity and irritation to the eye” value (0.02% eye drop (Grimes et al. 1992)) was “without the toxic affection and irritation”. Also, the Germicidal effect entry (0.02% eye drop, infected eyes treated repeatedly (Grimes et al. 1992)) is “same germicidal effects as one with concentration of 5.0% povidone iodine”. For the same substance, the “Toxicity to the eye” value is recorded as “no noticeable toxicity” (0.04% eye drops, clinical disinfection of eyes) and “toxic effects that cannot be ignored” (eye drops at high concentrations of 5%).
